Measurements from patent publication US12679848B2, “Plasma kallikrein inhibitors” (Merck Sharp & Dohme LLC, priority 2020, dated 2026).

Assays:
Human plasma kallikrein = molecular target: T1, Human plasma kallikrein (Homo sapiens, UniProt P03952); test: Plasma Kallikrein Assay; format: biochemical; settings: purified Human plasma kallikrein 0.5 nM, substrate Acetyl-K-P-R-AFC, HEPES pH 7.4; read-out: PKal IC50
T1 construct: yields a heavy chain (371 amino acids) and a light chain (248 amino acids); The active site of plasma kallikrein is contained in the light chain; purchased Enzyme Research Laboratories
Protocol: (§1) The effectiveness of a compound of the present invention as an inhibitor of plasma kallikrein can be determined using a relevant purified serine protease, and an appropriate synthetic substrate. The rate of hydrolysis of the chromogenic or fluorogenic substrate by the relevant serine protease was measured both in the absence and presence of compounds of the present invention. Assays were conducted at rt or at 37° C. […] A decrease in the rate of fluorescence change in the presence of inhibitor is indicative of enzyme inhibition. Such methods are known to one skilled in the art. The results of this assay are expressed as the half-maximal inhibitory concentrations (IC50), or the inhibitory constant, Ki.
Plasma kallikrein determinations were made in 50 mM HEPES buffer at pH 7.4 containing 150 mM NaCl, 5 mM CaCl2), and 0.1% PEG 8000 (polyethylene glycol; Fisher Scientific). Determinations were made using purified Human plasma kallikrein at a final concentration of 0.5 nM (Enzyme Research Laboratories) and the synthetic substrate, Acetyl-K—P—R-AFC (Sigma #C6608) at a concentration of […].
Times required to achieve equilibration between enzyme and inhibitor were determined in control experiments. […] IC50 was determined by inflection point from a four parameter logistic curve fit. Ki was calculated using the Cheng Prusoff equation, Ki=IC50/[…](1+([S]/Km)).

human factor XIa = human factor XIa (Homo sapiens, UniProt P03951); test: Factor XIa Assay; format: biochemical; settings: human factor XIa 0.04 nM, substrate GPR-AFC, 30 min pre-incubation, 25° C., pH 7.4; read-out: FXIa IC50
Protocol: as §1, with “Coagulation factor XIa” for “plasma kallikrein”
Compounds were pre-incubated for 30 min at 25° C. with human (0.04 nM) factor XIa in 50 mM HEPES buffer with 150 mM sodium chloride, 5 mM calcium chloride, 0.1% PEG 8000, pH 7.4. factor XIa enzymatic activity was determined by addition of the substrate glycine-proline-arginine-7-amido-4-trifluoromethylcoumarin (GPR-AFC) and measurement of the fluorescence at 400/505 nm after a 60 min incubation at 25° C. The % inhibition for each data point was calculated from the data and analyzed using the log (inhibitor) vs. response four parameters equation to determine the half-maximal inhibitory concentrations (IC50). The IC50 were converted to equilibrium inhibitory constants (Ki) using the Cheng-Prusoff equation.

T1 sequence (P03952 391-638 limits assumed): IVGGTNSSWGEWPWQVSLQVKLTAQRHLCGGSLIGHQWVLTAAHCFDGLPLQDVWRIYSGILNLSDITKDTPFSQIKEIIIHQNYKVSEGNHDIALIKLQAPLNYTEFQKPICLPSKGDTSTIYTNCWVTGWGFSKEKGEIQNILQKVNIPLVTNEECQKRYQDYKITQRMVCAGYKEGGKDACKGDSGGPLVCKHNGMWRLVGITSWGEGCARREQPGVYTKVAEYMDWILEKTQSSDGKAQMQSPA
T1 sequence (P03952 20-390 partner limits assumed): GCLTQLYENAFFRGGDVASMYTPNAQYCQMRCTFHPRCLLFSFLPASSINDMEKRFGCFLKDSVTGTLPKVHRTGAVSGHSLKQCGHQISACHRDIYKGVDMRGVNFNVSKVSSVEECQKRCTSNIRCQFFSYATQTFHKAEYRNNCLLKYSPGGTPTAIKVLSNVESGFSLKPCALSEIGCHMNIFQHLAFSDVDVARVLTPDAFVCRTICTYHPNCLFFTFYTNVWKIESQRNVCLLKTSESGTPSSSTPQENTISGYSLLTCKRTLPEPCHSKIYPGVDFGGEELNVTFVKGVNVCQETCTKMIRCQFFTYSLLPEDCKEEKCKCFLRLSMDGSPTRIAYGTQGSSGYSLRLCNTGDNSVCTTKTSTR
Sequence of human factor XIa (P03951 388-625 limits assumed): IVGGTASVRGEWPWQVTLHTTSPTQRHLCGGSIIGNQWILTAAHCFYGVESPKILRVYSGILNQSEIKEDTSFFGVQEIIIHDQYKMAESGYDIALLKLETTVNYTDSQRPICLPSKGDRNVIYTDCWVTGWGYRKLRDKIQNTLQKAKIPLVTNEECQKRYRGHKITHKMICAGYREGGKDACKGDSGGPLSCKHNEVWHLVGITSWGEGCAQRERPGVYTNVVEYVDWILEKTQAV
Sequence of human factor XIa (P03951 19-387 partner limits assumed): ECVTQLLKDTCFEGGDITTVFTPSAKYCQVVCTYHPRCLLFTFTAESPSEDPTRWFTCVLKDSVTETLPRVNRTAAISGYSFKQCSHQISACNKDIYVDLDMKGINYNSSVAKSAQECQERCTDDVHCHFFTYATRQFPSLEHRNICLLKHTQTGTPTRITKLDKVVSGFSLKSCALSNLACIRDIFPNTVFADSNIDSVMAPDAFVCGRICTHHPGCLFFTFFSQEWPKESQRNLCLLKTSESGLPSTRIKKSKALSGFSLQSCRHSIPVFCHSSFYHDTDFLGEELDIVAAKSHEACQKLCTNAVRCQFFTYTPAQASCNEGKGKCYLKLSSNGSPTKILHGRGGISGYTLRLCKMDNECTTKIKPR

| Structure (SMILES) | IC50 (Human plasma kallikrein) [nM] | IC50 (human factor XIa) [nM] |
| --- | --- | --- |
| Nc1c(C(=O)N2CCC[C@@]3(C2)OC(=O)Nc2ccc(Cl)c(F)c23)cnn1C1CCCCC1 [Example 35, (R)-1'-(5-Amino-1-cyclohexyl-1H-pyrazole-4-carbonyl)-6-chloro-5-fluorospiro[benzo[d][1,3]oxazine-4,3'-piperidin]-2(1H)-one] | 15.7 | 1080 |
| CN(C)c1ccccc1Cn1ncc(C(=O)N2CCC[C@@]3(C2)OC(=O)Nc2ccc(Cl)c(F)c23)c1N [Example 41, (R)-1'-(5-Amino-1-(2-(dimethylamino)benzyl)-1H-pyrazole-4-carbonyl)-6-chloro-5-fluorospiro[benzo[d][1,3]oxazine-4,3'-piperidin]-2(1H)-one] | 11.4 | 746 |
| Nc1c(C(=O)N2CCC[C@@]3(C2)OC(=O)Nc2ccc(Cl)c(F)c23)cnn1CC1(F)CC1 [Example 29, (R)-1'-(5-Amino-1-((1-fluorocyclopropyl)methyl)-1H-pyrazole-4-carbonyl)-6-chloro-5-fluorospiro[benzo[d][1,3]oxazine-4,3'-piperidin]-2(1H)-one] | 7.9 | 705 |
| CC(C1CC1)(n1ncc(C(=O)N2CCC[C@@]3(C2)OC(=O)Nc2ccc(Cl)c(F)c23)c1N)C(F)(F)F (single isomer, unassigned) [Example 127, (R)-1'-(5-Amino-1-((S or R)-2-cyclopropyl-1,1,1-trifluoropropan-2-y1)-1H-pyrazole-4-carbonyl)-6-chloro-5-fluorospiro[benzo[d][1,3]oxazine-4,3'-piperidin]-2(1H)-one] | 6.8 | 1020 |
| O=C1Nc2ccc(Cl)c(F)c2[C@@]2(CCCN(C(=O)c3cnn(Cc4ccc(F)cc4)c3O)C2)O1 [Example 132, (R)-6-Chloro-5-fluoro-1′-(1-(4-fluorobenzyl)-5-hydroxy-1H-pyrazole-4-carbonyl)spiro[benzo[d][1,3]oxazine-4,3′-piperidin]-2(1H)-one] | 17.8 | ≥ 10000 |
| CC(=O)Nc1ccc(-n2ncc(C(=O)N3CCC[C@@]4(C3)OC(=O)Nc3ccc(Cl)c(F)c34)c2N)cc1 [Example 67, (R)-N-(4-(5-Amino-4-(6-chloro-5-fluoro-2-oxo-1,2-dihydrospiro[benzo[d][1,3]oxazine-4,3'-piperidine]-1'-carbonyl)-1H-pyrazol-1-yl)phenyl)acetamide] | 46.2 | 7320 |
| Nc1c(C(=O)N2CCC[C@@]3(C2)OC(=O)Nc2ccc(Cl)c(F)c23)cnn1-c1ccccc1Br [Example 83, (R)-1'-(5-Amino-1-(2-bromophenyl)-1H-pyrazole-4-carbonyl)-6-chloro-5-fluorospiro[benzo[d][1,3]oxazine-4,3'-piperidin]-2(1H)-one] | 35.5 | 862 |
| Cc1ncccc1-n1ncc(C(=O)N2CCC[C@@]3(C2)OC(=O)Nc2ccc(Cl)c(F)c23)c1N [Example 61, (R)-1'-(5-Amino-1-(2-methylpyridin-3-y1)-1H-pyrazole-4-carbonyl)-6-chloro-5-fluorospiro[benzo[d][1,3]oxazine-4,3'-piperidin]-2(1H)-one] | 42.5 | 1750 |
| Nc1c(C(=O)N2CCC[C@@]3(C2)OC(=O)Nc2ccc(Cl)c(F)c23)cnn1-c1cc(F)ccc1OC(F)F [Example 106, (R)-1'-(5-Amino-1-(2-(difluoromethoxy)-5-fluorophenyl)-1H-pyrazole-4-carbonyl)-6-chloro-5-fluorospiro[benzo[d][1,3]oxazine-4,3'-piperidin]-2(1H)-one] | 34.8 | 1070 |
| Nc1c(C(=O)N2CCC[C@@]3(C2)OC(=O)Nc2ccc(Cl)c(F)c23)cnn1-c1ccccc1 [Example 57, (R)-1'-(5-Amino-1-phenyl-1H-pyrazole-4-carbonyl)-6-chloro-5-fluorospiro[benzo[d][1,3]oxazine-4,3'-piperidin]-2(1H)-one] | – | 4140 |

Now those with a lower IC50 (human factor XIa), led by results:

| IC50 (Human plasma kallikrein) [nM] | IC50 (human factor XIa) [nM] | Structure (SMILES) |
| --- | --- | --- |
| 190 | 328 | Nc1c(C(=O)N2CCC[C@@]3(C2)OC(=O)Nc2ccc(Cl)c(F)c23)nnn1Cc1ccccc1 [Example 133, (R)-1′-(5-Amino-1-benzyl-1H-1,2,3-triazole-4-carbonyl)-6-chloro-5-fluorospiro[benzo[d][1,3]oxazine-4,3′-piperidin]-2(1H)-one] |
| 1.7 | 268 | Nc1c(C(=O)N2CCC[C@@]3(C2)OC(=O)Nc2ccc(Cl)c(F)c23)cnn1Cc1ccncc1 [Example 32, (R)-1'-(5-Amino-1-(pyridin-4-ylmethyl)-1H-pyrazole-4-carbonyl)-6-chloro-5-fluorospiro[benzo[d][1,3]oxazine-4,3'-piperidin]-2(1H)-one] |
| – | 262 | Nc1c(C(=O)N2CCC[C@@]3(C2)OC(=O)Nc2ccc(Cl)c(F)c23)cnn1-c1ccccc1OC(F)(F)F [Example 72, (R)-1'-(5-Amino-1-(2-(trifluoromethoxy)phenyl)-1H-pyrazole-4-carbonyl)-6-chloro-5-fluorospiro[benzo[d][1,3]oxazine-4,3'-piperidin]-2(1H)-one] |
| 1.2 | 293 | COc1cccc(Cn2ncc(C(=O)N3CCC[C@@]4(C3)OC(=O)Nc3ccc(Cl)c(F)c34)c2N)c1 [Example 39, (R)-1'-(5-Amino-1-(3-methoxybenzyl)-1H-pyrazole-4-carbonyl)-6-chloro-5-fluorospiro[benzo[d][1,3]oxazine-4,3'-piperidin]-2(1H)-one] |
| 0.6 | 2 | CCC(C1CCOCC1)n1ncc(C(=O)N2CCC[C@@]3(C2)OC(=O)Nc2ccc(Cl)c(F)c23)c1N (single isomer, unassigned) [Example 113, (R)-1'-(5-Amino-1-((S or R)-1-(tetrahydro-2H-pyran-4-yl)propyl)-1H-pyrazole-4-carbonyl)-6-chloro-5-fluorospiro[benzo[d][1,3]oxazine-4,3'-piperidin]-2(1H)-one] |
| 7.2 | 582 | Nc1c(C(=O)N2CCC[C@@]3(C2)OC(=O)Nc2ccc(Cl)c(F)c23)cnn1CC1CC1 [Example 13, (R)-1'-(5-Amino-1-(cyclopropylmethyl)-1H-pyrazole-4-carbonyl)-6-chloro-5-fluorospiro[benzo[d][1,3]oxazine-4,3'-piperidin]-2(1H)-one] |
| 1 | 95 | Nc1c(C(=O)N2CCC[C@@]3(C2)OC(=O)Nc2ccc(Cl)c(F)c23)cnn1C(c1ccccc1)C(F)(F)F (single isomer, unassigned) [Example 122, (R)-1'-(5-Amino-1-((R or S)-2,2,2-trifluoro-1-phenylethyl)-1H-pyrazole-4-carbonyl)-6-chloro-5-fluorospiro[benzo[d][1,3]oxazine-4,3'-piperidin]-2(1H)-one] |
| – | 9 | CC[C@H](n1ncc(C(=O)N2CCC[C@@]3(C2)OC(=O)Nc2ccc(Cl)c(F)c23)c1N)C(F)(F)F (single isomer, unassigned) [Example 4] |
| 1 | 438 | Nc1c(C(=O)N2CCC[C@@]3(C2)OC(=O)Nc2ccc(Cl)c(F)c23)cnn1Cc1ccc(F)c(F)c1 [Example 33, (R)-1'-(5-Amino-1-(3,4-difluorobenzy1)-1H-pyrazole-4-carbonyl)-6-chloro-5-fluorospiro[benzo[d][1,3]oxazine-4,3'-piperidin]-2(1H)-one] |
| 1.2 | 70 | CCC(n1ncc(C(=O)N2CC(C)(C)C[C@@]3(C2)OC(=O)Nc2ccc(Cl)c(F)c23)c1N)C(F)(F)F (single isomer, unassigned) [Example 131, (R)-1'-(5-Amino-1-((S or R)-1,1,1-trifluorobutan-2-y1)-1H-pyrazole-4-carbonyl)-6-chloro-5-fluoro-5',5'-dimethylspiro[benzo[d][1,3]oxazine-4,3'-piperidin]-2(1H)-one] |
| – | 105 | CC[C@@H](n1ncc(C(=O)N2CCC[C@@]3(C2)OC(=O)Nc2ccc(Cl)c(F)c23)c1N)C(F)(F)F (single isomer, unassigned) [Example 3] |
| – | 68 | Nc1c(C(=O)N2CCC[C@@]3(C2)OC(=O)Nc2ccc(Cl)c(F)c23)cnn1Cc1ccccc1 [Example 8, (R)-1'-(5-Amino-1-benzyl-1H-pyrazole-4-carbonyl)-6-chloro-5-fluorospiro[benzo[d][1,3]oxazine-4,3'-piperidin]-2(1H)-one] |
